This note sets out measurements from patent publication US9708286B2, “Ingenol-3-acylates III and ingenol-3-carbamates” (LEO Laboratories Limited, priority 2010, dated 2017).

Common to all, as to assay type: cell-based
For assay [1], the system named is PMN's (polymorphonuclear leukocytes). Put plainly: Neutrophil oxidative burst. The following applies: normalized to 5×10^−7 M PEP0005. The protocol:
PMN's (polymorphonuclear leukocytes) were isolated and purified from fresh buffy coats by sequential sedimentation, density centrifugation and lysis of contaminating erythrocytes. Buffy coats were incubated with 2% methocel for 30-45 min to differentially sediment red blood cells. The leukocyte-rich supernatant was transferred to lymphoprep tubes to remove mononuclear cells by density centrifugation (400×g, 30 min). The pellet was resuspended and any remaining erythrocytes lysed using 0.2% NaCl for 30 sec before restoring isotonicity by the addition of 1.2% NaCl. This step was repeated until the cell pellet appears relatively free of red blood cells. Cells were resuspended in DPBS (Dulbecco's Phosphate Buffered Saline) (w.o. Ca^2+, Mg^2+) and the concentration adjusted to 1.4×10^6 cells/ml in HBSS (Hanks Balanced Salt solution) (w Ca^2+, Mg^2±) containing 0.1% BSA (Bovine Serum Albumin) and 5 mM glucose just prior to assay initiation. Titrated reference and test compounds were pre-mixed with HE (Hydroethidine) (10 μM final assay concentration) before addition to 96-well plates containing 2.5×10^5 cells. Following 40 min incubation at RT, changes in the respiratory burst was estimated by measuring fluorescence at 579 nm (excitation: 485 nm) using an Envision plate reader.
Test compound titration curves were fitted to a four-parameter sigmoidal curve after normalizing the effect of the test compound to the effect of the positive control (5×10^−7 M PEP0005). Rel EC50 denotes the concentration of test compound producing an effect that is midway between the fitted top and bottom. Abs EC50 is the concentration of test compound that provokes a response corresponding to 50% of the maximal effect associated with the positive control (5×10^−7 M PEP0005).

Assay [2] deals with Primary human epidermal keratinocytes, HeKa. Put plainly: HeKa cytokine release (IL-8). The following applies: read-out: HeKa cytokine release (IL-8) Rel EC50 range. The method, then:
Primary human epidermal keratinocytes, HeKa, were seeded (10.000 cells/well) in 96-well plates the day before the assay. Test compounds were diluted in DMSO (dimethyl sulfoxide) and further diluted in assay medium and pipetted into wells of 96 well-plates containing HeKa cells. The plates were incubated for 6 h at 37° C. in humidified air with 5% CO2. Plates were centrifuged briefly to spin down cells at 4° C., the supernatant was removed and analysed by Meso Scale Discovery (MSD) 4-spot cytokine assay (Pro-inflammatory II Ultra Sensitive kit, MSD, MD, USA). The MSD assay employs a sandwich immunoassay format where capture antibodies are coated in a patterned array on the bottom of the wells of a 4-Spot-Multi-MSD plate. Standard samples were incubated in the MULTI-SPOT plates as well, and the cytokine (IL-8) binds to its corresponding capture antibody spot. The cytokine level was quantitated on a SECTOR™ Imager using a cytokine-specific Detection Antibody labelled with MSD SULFO-TAG™ reagent.
Test compound titration curves were fitted to a four-parameter sigmoidal curve after normalizing the effect of the test compound to the effect of the positive control (1.5×10^−7 M PEP0005). Rel EC50 denotes the concentration of test compound producing an effect that is midway between the fitted top and bottom.

The next assay deals with HeLa cells. Put plainly: Necrosis assay. The following applies: Homo sapiens, HeLa, 0.5 h, read-out: HeLa necrosis EC50 range. The method, then: HeLa cells (ATCC CCL-002) were grown in minimal essential medium (Invitrogen catalog no. 42360) containing 10% fetal bovine serum, 100 IU/ml penicillin and 100 μg/ml streptomycin. 4,000-6,000 cells were seeded into 96-well black ViewPlates-plates, clear bottom, (Perkin Elmer) in 100 μl medium and incubated overnight. Compounds were dissolved and pre-diluted in DMSO in 96-well polypropylene plates (Greiner) in a concentration range of 15 μM to 600 μM. At the time of the experiment cell plates were placed on heating blocks at 37° C., medium was removed and 40 μl fresh, pre-warmed medium was added per well. Cells were incubated for 15 min before addition of compounds. In parallel, 3 μl of compounds were diluted with 197 μl growth medium on a Tecan freedom-EVO pipetting station using 250 μl/s pipetting speed, in order to ensure effective mixing of the highly concentrated compound solutions with the aqueous phase. These pre-dilution plates were then equilibrated on heating blocks at 37° C. for 10 min. 80 μl pre-diluted compound were transferred manually to the corresponding wells containing HeLa cells yielding compound concentrations of 10 μM to 400 μM. Control conditions were 1% DMSO in growth medium (100% viability) and 400 μM ingenol mebutate in growth medium (0% viability). Plates were incubated on the heating blocks at 37° C. for 30 min. At the end of the incubation 10 μl PrestoBlue reagent (Invitrogen) were added to each well, plates were sealed with black seal, followed by incubation at 37° C. for 10 min with gentle shaking (150 rpm). Subsequently, plates were placed at room temperature for 20-30 min. Plates were read immediately after on an Envision Fluorescence reader (Perkin Elmer) with excitation at 535 nm and emission at 630 nm. Test compound titration curves were fitted to a four-parameter sigmoidal curve after normalizing the effect of the test compound to the effect of the positive control (4 10^−4 M PEP0005/ingenol mebutate). AbsEC50 denotes the concentration of test compound producing 50% effect.

[3] abbreviates: Leukocyte, 40 min, read-out: Neutrophil oxidative burst Rel EC50 range, PMN from buffy coats, 40 min at RT, hydroethidine fluorescence.

pEC50: −log10 of the molar value. Read-outs that look alike come from different tables or passages of the source.

In the case of `CC1=C[C@]23C(=O)[C@@H](C=C(CO)[C@@H](O)[C@]2(O)[C@H]1OC(=O)N1CCCC1C(F)(F)F)[C@H]1[C@@H](C[C@H]3C)C1(C)C` (single isomer, unassigned; isomer b) [Compound 741, Ingenol 3-(2-trifluoromethyl-pyrrolidine-1-carboxylate) (ISOMER B)], the pEC50 in assay [1] (read-out: Neutrophil oxidative burst Rel EC50 range, PMN from buffy coats, 40 min at RT, hydroethidine fluorescence) was 7.00 to 7.70; in assay [2] (HeKa cells, 6 h at 37° C., IL-8 by MSD assay, normalized to 1.5×10^−7 M PEP0005), 7.00 to 7.70; in the assay on HeLa cells it was under 3.46.

With `CC1=C[C@]23C(=O)[C@@H](C=C(CO)[C@@H](O)[C@]2(O)[C@H]1OC(=O)c1c(-c2c(F)cccc2Cl)noc1C)[C@H]1[C@@H](C[C@H]3C)C1(C)C` [Compound 501, Ingenol 3-(5-methyl-3-(2-chloro-6-fluoro-phenyl)-isoxazole-4-carboxylate)], the pEC50 in assay [1] (setting [3]) was 7.00 to 7.70; in assay [2] (Homo sapiens, HEKa, 6 h), over 7.70; with HeLa cells, over 3.82.

For `CC1=C[C@]23C(=O)[C@@H](C=C(CO)[C@@H](O)[C@]2(O)[C@H]1OC(=O)c1c(-c2ccccc2)noc1C)[C@H]1[C@@H](C[C@H]3C)C1(C)C` [Compound 502, Ingenol 3-(5-methyl-3-phenyl-isoxazole-4-carboxylate)], the pEC50 in assay [1] (setting [3]) was over 7.70; in assay [2] (Homo sapiens, HEKa, 6 h) it was over 7.70; in the assay with HeLa cells, over 3.82.

Take `CC1=C[C@]23C(=O)[C@@H](C=C(CO)[C@@H](O)[C@]2(O)[C@H]1OC(=O)c1ccnn1-c1ccccc1)[C@H]1[C@@H](C[C@H]3C)C1(C)C` [Compound 505, Ingenol 3-(2-phenylpyrazole-3-carboxylate)]: the negative-log EC50 (pEC50) in assay [1] (setting [3]) was over 7.70; in assay [2] (Homo sapiens, HEKa, 6 h) it was over 7.70; in the assay with HeLa cells, over 3.82.

With `CC1=C[C@]23C(=O)[C@@H](C=C(CO)[C@@H](O)[C@]2(O)[C@H]1OC(=O)c1nn(C)c2ccccc12)[C@H]1[C@@H](C[C@H]3C)C1(C)C` [Compound 506, Ingenol 3-(1-methylindazole-3-carboxylate)], the pEC50 is over 7.70 in assay [1] (setting [3]); over 7.70 in assay [2] (Homo sapiens, HEKa, 6 h); over 3.82 in the assay on HeLa cells.

For the compound `CCc1noc(C)c1C(=O)O[C@H]1C(C)=C[C@]23C(=O)[C@@H](C=C(CO)[C@@H](O)[C@]12O)[C@H]1[C@@H](C[C@H]3C)C1(C)C` [Compound 507, Ingenol 3-(3-ethyl-5-methyl-isoxazole-4-carboxylate)], the pEC50 is over 7.70 in assay [1] (setting [3]); over 7.70 in assay [2] (Homo sapiens, HEKa, 6 h); 3.46 to 3.82 in the assay on HeLa cells.

Regarding `CC1=C[C@]23C(=O)[C@@H](C=C(CO)[C@@H](O)[C@]2(O)[C@H]1OC(=O)c1c(C)noc1C)[C@H]1[C@@H](C[C@H]3C)C1(C)C` [Compound 508, Ingenol 3-(3-methyl-5-methyl-isoxazole-4-carboxylate)], the negative-log EC50 (pEC50) in assay [1] (setting [3]) was over 7.70; in assay [2] (Homo sapiens, HEKa, 6 h), over 7.70; with HeLa cells, 3.46 to 3.82.

Consider `CC1=C[C@]23C(=O)[C@@H](C=C(CO)[C@@H](O)[C@]2(O)[C@H]1OC(=O)c1sccc1-c1ccccc1)[C@H]1[C@@H](C[C@H]3C)C1(C)C` [Compound 510, Ingenol 3-(3-phenylthiophene-2-carboxylate)], for which the pEC50 is 7.00 to 7.70 in assay [1] (setting [3]); over 7.70 in assay [2] (Homo sapiens, HEKa, 6 h); over 3.82 with HeLa cells.

As to `CC1=C[C@]23C(=O)[C@@H](C=C(CO)[C@@H](O)[C@]2(O)[C@H]1OC(=O)c1cnnc2ccccc12)[C@H]1[C@@H](C[C@H]3C)C1(C)C` [Compound 514, Ingenol 3-(cinnoline-4-carboxylate)], the pEC50 in assay [1] (setting [3]) is under 7.00; in assay [2] (Homo sapiens, HEKa, 6 h), under 7.00; in the assay on HeLa cells, over 3.82.

`CC1=C[C@]23C(=O)[C@@H](C=C(CO)[C@@H](O)[C@]2(O)[C@H]1OC(=O)N1CCOCC1)[C@H]1[C@@H](C[C@H]3C)C1(C)C` [Compound 703, Ingenol 3-(morpholine-4-carboxylate)]: the pEC50 was 7.00 to 7.70 in assay [1] (setting [3]) and under 7.00 in assay [2] (Homo sapiens, HEKa, 6 h).

With `CC1=C[C@]23C(=O)[C@@H](C=C(CO)[C@@H](O)[C@]2(O)[C@H]1OC(=O)N1CCCC1)[C@H]1[C@@H](C[C@H]3C)C1(C)C` [Compound 704, Ingenol 3-(pyrrolidine-1-carboxylate)], the pEC50 in assay [1] (setting [3]) is 7.00 to 7.70; in assay [2] (Homo sapiens, HEKa, 6 h), under 7.00.

With `CC1=C[C@]23C(=O)[C@@H](C=C(CO)[C@@H](O)[C@]2(O)[C@H]1OC(=O)N1CCCCC1)[C@H]1[C@@H](C[C@H]3C)C1(C)C` [Compound 707, Ingenol 3-(piperidine-1-carboxylate)], the pEC50 was over 7.70 in assay [1] (setting [3]) and 7.00 to 7.70 in assay [2] (Homo sapiens, HEKa, 6 h).

In the case of `CC1=C[C@]23C(=O)[C@@H](C=C(CO)[C@@H](O)[C@]2(O)[C@H]1OC(=O)N(C)Cc1ccccc1)[C@H]1[C@@H](C[C@H]3C)C1(C)C` [Compound 708, Ingenol 3-(N-benzyl-N-methyl-carbamate)], the negative logarithm of the EC50 (pEC50) in assay [1] (setting [3]) was 7.00 to 7.70; in assay [2] (Homo sapiens, HEKa, 6 h) it was over 7.70.

`CC1=C[C@]23C(=O)[C@@H](C=C(CO)[C@@H](O)[C@]2(O)[C@H]1OC(=O)NC1CCCCC1)[C@H]1[C@@H](C[C@H]3C)C1(C)C` [Compound 710, Ingenol 3-(N-cyclohexyl-carbamate)]: the pEC50 was over 7.70 in assay [1] (setting [3]) and 7.00 to 7.70 in assay [2] (Homo sapiens, HEKa, 6 h).

Regarding `CC1=C[C@]23C(=O)[C@@H](C=C(CO)[C@@H](O)[C@]2(O)[C@H]1OC(=O)Nc1ccccc1)[C@H]1[C@@H](C[C@H]3C)C1(C)C` [Compound 711, Ingenol 3-(N-phenyl-carbamate)], the negative-log EC50 (pEC50) is 7.00 to 7.70 in assay [1] (setting [3]) and over 7.70 in assay [2] (Homo sapiens, HEKa, 6 h).

Take `CC1=C[C@]23C(=O)[C@@H](C=C(CO)[C@@H](O)[C@]2(O)[C@H]1OC(=O)NC1CCc2ccccc21)[C@H]1[C@@H](C[C@H]3C)C1(C)C` (stereo partly drawn) [Compound 712, Ingenol 3-(N-(indan-1-yl)-carbamate)]: the pEC50 in assay [1] (setting [3]) was 7.00 to 7.70; in assay [2] (Homo sapiens, HEKa, 6 h), 7.00 to 7.70.

As to `CC1=C[C@]23C(=O)[C@@H](C=C(CO)[C@@H](O)[C@]2(O)[C@H]1OC(=O)N(C)c1ccccn1)[C@H]1[C@@H](C[C@H]3C)C1(C)C` [Compound 724, Ingenol 3-(N-methyl-N-(2-pyridyl)-carbamate)], the pEC50 in assay [2] (Homo sapiens, HEKa, 6 h) is 7.00 to 7.70; in the assay on HeLa cells, under 3.46.

Take `CC1=C[C@]23C(=O)[C@@H](C=C(CO)[C@@H](O)[C@]2(O)[C@H]1OC(=O)N1CCCCCC1)[C@H]1[C@@H](C[C@H]3C)C1(C)C` [Compound 728, Ingenol 3-(azepane-1-carboxylate)]: the negative-log EC50 (pEC50) in assay [1] (setting [3]) was 7.00 to 7.70; in assay [2] (Homo sapiens, HEKa, 6 h), 7.00 to 7.70.

Broadly, the pEC50 is −log10 of the EC50, conventionally taken in molar units.
